The record followed here is patent US8815829B2, “3′-azido purine nucleotide prodrugs for treatment of viral infections” (priority 2008, dated 2014).

One assay deals with NRTI-resistant HIV-1. Nature of the assay: Cross-resistance against a broad panel of NRTI-resistant HIV-1. The assay is classed as cell-based.
The test system of assay [1] is HIV-1 T69SSS (M41L/T69SSS/L210W/T215Y). Nature of the assay: microbe, parasite or virus in culture. The assay is classed as cell-based. The conditions noted are these: Human immunodeficiency virus 1, P4/R5, P4/R5 cells, mean ± standard deviation. The procedure:
(§1) In a 96-well plate, two- or three-fold serial dilutions of an inhibitor were added to P4/R5 cells in triplicate. […] At 48 h post-infection, a cell lysis buffer and luminescent substrate (Gal-Screen; Tropix/Applied Biosystems) was added to each well, and relative light unit values were determined using a luminometer (ThermoLabSystems, Waltham, Mass.).
(§2) Virus stocks were prepared as described above. Drug susceptibility assays were performed using the single- and multiple-replication-cycle assays also described above.

The subject of assay [2] is HIV-1 AZT7 (M41L/D67N/K70R/T215F/K219Q). Kind of assay: microbe, parasite or virus in culture. The assay is classed as cell-based. The settings on record: for EC50: Human immunodeficiency virus 1, P4/R5 cells, mean ± standard deviation. As for the experimental part:
as §1, §2

A further assay relates to HIV-1 K65R. Nature of the assay: microbe, parasite or virus in culture. The format is cell-based. The settings on record: for EC50: Human immunodeficiency virus 1, P4/R5 cells, mean ± standard deviation. The procedure: as §1, §2
The subject of assay [3] is HIV-1 AZT9 (M41L/D67N/K70R/L210W/T215Y/K219Q). Kind of assay: microbe, parasite or virus in culture. The format is cell-based. The settings on record: for EC50: Human immunodeficiency virus 1, P4/R5 cells, mean ± standard deviation. The procedure:
as §1, §2

A further assay has as its system HIV-1 L74V. Kind of assay: microbe, parasite or virus in culture. The conditions noted are these: for EC50: Human immunodeficiency virus 1, P4/R5 cells, mean ± standard deviation. The assay is classed as cell-based. As for the experimental part: as §1, §2
A further assay deals with HIV-1 M184V. Kind of assay: microbe, parasite or virus in culture. The format is cell-based. The conditions noted are these: for EC50: Human immunodeficiency virus 1, P4/R5 cells, mean ± standard deviation. As for the experimental part: as §1, §2
Assay [4] relates to HIV-1 AZT3 (M41L/L210W/T215Y). Nature of the assay: microbe, parasite or virus in culture. The format is cell-based. The conditions noted are these: for EC50: Human immunodeficiency virus 1, P4/R5 cells, mean ± standard deviation. The procedure:
as §1, §2

For assay [5], the system named is HIV-1 Q151Mc (A62V/V75I/F77L/F116Y/Q151M). Nature of the assay: microbe, parasite or virus in culture. The conditions noted are these: mean ± standard deviation. The assay is classed as cell-based. The procedure: as §1, §2
The test system of assay [6] is HIV-1 AZT2 (D67N/K70R/T215F/K219Q). Kind of assay: microbe, parasite or virus in culture. The format is cell-based. The settings on record: for EC50: Human immunodeficiency virus 1, P4/R5 cells, mean ± standard deviation. The procedure:
as §1, §2

The next assay has as its system HIV-1/LAI. Kind of assay: Anti-HIV-1 assay in PBM cells. The format is cell-based. The procedure: Stock solutions (20-40 mM) of the compounds were prepared in sterile DMSO and then diluted to the desired concentration in growth medium. Cells were infected with the prototype HIV-1LAI at a multiplicity of infection of 0.01. Virus obtained from the cell supernatant was quantified on day 6 after infection by a reverse transcriptase assay using (rA)n·(dT)12-18 as template-primer. […] The antiviral EC50 and EC90 were obtained from the concentration-response curve using the median effective method described previously (see Chou T.-C. & Talalay P. Adv. Enzyme Regul. 1984, 22, 27-55; Belen'kii M. S. & Schinazi R. F. Antiviral Res. 1994, 25, 1-11).

The test system of the next assay is PBM cells. Nature of the assay: Cytotoxicity assay in PBM cells. The format is cell-based, human.
The test system of another assay is Vero cells. Nature of the assay: Cytotoxicity assay in Vero cells. The assay is classed as cell-based. The conditions noted are these: read-out: Vero IC50; Tables 2-4.
The next assay relates to CEM cells. Nature of the assay: Cytotoxicity assay in CEM cells. The assay is classed as cell-based, human. The conditions noted are these: Tables 2-4; read-out: CEM IC50.
The subject of the next assay is WT (LAI) HIV-1. Kind of assay: Single cycle assay in P4/R5 cells, WT HIV-1. The assay is classed as cell-based. The procedure: as §1, §2
The test system of a further assay is HIV-2/pROD10. Kind of assay: HIV-2 drug susceptibility in PBM cells. The format is cell-based. The settings on record: Human immunodeficiency virus 2, PBMC.
Another assay relates to 151M complex RT. Kind of assay: Studies with purified RT: inhibition of 151M complex RT. The assay is classed as biochemical, HIV-1.
The next assay concerns the target T1, Wild-type (WT) HIV-1 RT (Human immunodeficiency virus type 1 group M subtype B, UniProt P03367).
T1 construct: HIV-1 RT (xxLAI background); inferred from vector p6HRT-PROT and the cited metal chelate purification; made in house; host or cells: bacteria (p6HRT-PROT expression vector)
Nature of the assay: Inhibition of HIV-1 RT DNA synthesis by 6-modified-AZG analogs. The assay is classed as biochemical. The settings on record: DNA/DNA template/primer, 200 nM WT RT, 40 min. As for the experimental part: Wild-type (WT) HIV-1 RT was purified as described previously (1, 2). […] The 214 nucleotide (nt) DNA template, corresponding to the HIV-1 PBS region, was prepared as described previously (4). Reactions were initiated by the addition of 200 nM WT RT, incubated for 40 min at 37° C. and then quenched using 20 μL of gel loading buffer (98% deionized formamide containing 1 mg/mL each of bromophenol blue and xylene cyanol). […] Gels were analyzed using phosphorimaging with a GS525 Molecular Imager and Quantity One Software (Biorad Laboratories, Inc., Hercules, Calif.).

[7] abbreviates: Human immunodeficiency virus 1, P4/R5, P4/R5 cells.
The mark [8] stands for this setting: Human immunodeficiency virus 1, P4/R5, read-out: EC50 WT (LAI), P4/R5 cells, mean ± standard deviation.

Read-outs that look alike come from different tables or passages of the source.

Take `CCOC(=O)[C@H](C)NP(=O)(OC[C@H]1O[C@@H](n2cnc3c(N)nc(N)nc32)CC1N=[N+]=[N-])Oc1ccccc1` (stereo partly drawn) [RS-788]: the “cross-resistance profile compared to AZD, AZG or AZT” value in the assay with NRTI-resistant HIV-1 is “superior cross-resistance profile”. Moreover, the EC50 in [1] turned out to be 0.44 µM; in assay [2], 0.27 ± 0.05 µM; in the assay on HIV-1 K65R, 0.106 ± 0.07 µM; in assay [3] it was 0.253 ± 0.09 µM; in the assay on HIV-1 L74V, 0.073 ± 0.02 µM; in the assay on HIV-1 M184V it was 0.048 ± 0.03 µM. Moreover, the EC50 in assay [4] turned out to be 0.189 ± 0.02 µM; in assay [5] (setting [7]), 0.28 µM; in assay [5] (P4/R5 cells) it was 0.277 ± 0.07 µM; in assay [6], 0.274 ± 0.07 µM; with HIV-1/LAI (Tables 2-4, n = 3 for the MP prodrugs, read-out: HIV EC50), 0.009 µM; in the assay on WT (LAI) HIV-1 (setting [8]), 0.12 µM. Also, the EC50 in the assay on WT (LAI) HIV-1 (read-out: EC50 WT (LAI), P4/R5 cells, mean ± standard deviation) worked out at 0.118 ± 0.06 µM. The “Fold-change versus WT, AZT7” value in [2] (EC50 mutant / EC50 WT) was “(2.3) fold”. Besides, the “Fold-change versus WT, K65R” value in the assay on HIV-1 K65R (EC50 mutant / EC50 WT) is on record as “(0.9) fold”. In addition, in [3] (EC50 mutant / EC50 WT), the “Fold-change versus WT, AZT9” value is “(2.1) fold”. Also, the “Fold-change versus WT, L74V” value in the assay with HIV-1 L74V (EC50 mutant / EC50 WT) is “(0.6) fold”. Besides, the “Fold-change versus WT, M184V” value in the assay with HIV-1 M184V (EC50 mutant / EC50 WT) is reported as “(0.4) fold”. The “Fold-change versus WT, AZT3” value in assay [4] (EC50 mutant / EC50 WT) is given as “(1.6) fold”. Further, the “Fold-change versus WT, AZT2” value in [6] (EC50 mutant / EC50 WT) is listed as “(2.3) fold”. In the assay with HIV-1/LAI (Tables 2-4, n = 3 for the MP prodrugs, read-out: HIV EC90), the EC90 worked out at 0.11 µM. For the same compound, the IC50 is 38.3 µM with PBM cells (Tables 2-4, read-out: PBM IC50); greater than 100 µM with Vero cells; 30.4 µM with CEM cells. The “fold more potent against WT HIV-1 compared to either RS-667 or RFS-457” value with WT (LAI) HIV-1 is reported as roughly 10 fold.
For the compound `Cc1cn([C@H]2C[C@H](N=[N+]=[N-])[C@@H](CO)O2)c(=O)[nH]c1=O` [AZT, 3′-azido-3′-deoxythymidine, reference compound], the EC50 in the assay with HIV-2/pROD10 is 0.0076 µM; in assay [1] it was greater than 90 µM; in assay [2] it was greater than 90 µM; in the assay with HIV-1 K65R, 0.163 ± 0.06 µM; in assay [3] it was greater than 90 µM; with HIV-1 L74V it was 0.156 ± 0.03 µM. The EC50 with HIV-1 M184V was 0.095 ± 0.04 µM; in assay [4], 2.85 ± 0.88 µM; in assay [5] (setting [7]) it was greater than 90 µM; in assay [6] it was 11.1 ± 4.3 µM; in the assay on WT (LAI) HIV-1 (setting [8]), 0.126 ± 0.04 µM. Moreover, the EC90 in the assay with HIV-2/pROD10 stood at 0.064 µM; with HIV-1/LAI (Human immunodeficiency virus 1, PBMC, PBM cells, read-out: HIV-1/LAI (PBM) EC90), 0.02 µM. In the assay with PBM cells (Homo sapiens, PBMC, Table 5, read-out: Toxicity IC50 PBM), the IC50 was greater than 100 µM.
With `[N-]=[N+]=N[C@H]1C[C@H](n2cnc3c(N)nc(N)nc32)O[C@@H]1COP(=O)(O)OP(=O)(O)OP(=O)(O)O` [RS-667-TP], in the assay with 151M complex RT, the “potency against 151M complex RT” value is on record as “less potent than AZG-TP”. Further, on Wild-type (WT) HIV-1 RT, the “potency of inhibition of HIV-1 RT DNA synthesis (rank order)” value is reported as “most potent analog”.

As a reminder, the IC50 is the midpoint of a concentration-inhibition curve.
